From patent US8461183B2, “PPAR agonist compounds, preparation and uses” (Genfit, priority 2008, dated 2013)

Tests used:
hPPARγ = molecular target: T1, hPPARγ (Homo sapiens, UniProt P37231); assay: Gal4-hPPARγ chimera transactivation (luciferase) in COS-7 cells; type: cell-based; settings: 24 hours; for EC50: luciferase, read-out: PPARγ EC50; for Emax: relative to maximum activation obtained with rosiglitazone, read-out: PPARγ TOP % (maximum activation)
T1 construct: corresponding to the DEF domains (structural elements of the promoter of the PPARs: D=hinge, EF=ligand fixation domain and AF2 fixation site); expressed in transfected cells; host or cells: COS-7 (monkey kidney fibroblasts)
T1 sequence (P37231 238-503 limits assumed): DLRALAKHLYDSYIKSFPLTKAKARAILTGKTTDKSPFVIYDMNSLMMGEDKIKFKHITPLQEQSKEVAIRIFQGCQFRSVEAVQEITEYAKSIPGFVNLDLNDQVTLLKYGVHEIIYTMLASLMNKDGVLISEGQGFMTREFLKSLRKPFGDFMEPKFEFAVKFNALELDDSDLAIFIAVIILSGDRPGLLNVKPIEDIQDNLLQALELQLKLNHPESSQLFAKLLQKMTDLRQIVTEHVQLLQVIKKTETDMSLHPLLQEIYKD
How it was run: (§1)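 COS-7 cells transfected with Gal4-DBD fused to human PPARγ or PPARδ DEF (hinge/ligand-binding) domain plus Gal4(RE)_TkpGL3 luciferase reporter (1:10).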

hPPARδ = molecular target: T2, hPPARδ (Homo sapiens, UniProt Q03181); assay: Gal4-hPPARδ chimera transactivation (luciferase) in COS-7 cells; type: cell-based; settings: COS-7 cells, Gal4-hPPARδ, 24 hours; for EC50: luciferase, read-out: PPARδ EC50; for Emax: relative to maximum activation obtained with GW501516, read-out: PPARδ TOP % (maximum activation)
T2 construct: corresponding to the DEF domains (structural elements of the promoter of the PPARs: D=hinge, EF=ligand fixation domain and AF2 fixation site); expressed in transfected cells; host or cells: COS-7 (monkey kidney fibroblasts)
T2 sequence (Q03181 211-439 limits assumed): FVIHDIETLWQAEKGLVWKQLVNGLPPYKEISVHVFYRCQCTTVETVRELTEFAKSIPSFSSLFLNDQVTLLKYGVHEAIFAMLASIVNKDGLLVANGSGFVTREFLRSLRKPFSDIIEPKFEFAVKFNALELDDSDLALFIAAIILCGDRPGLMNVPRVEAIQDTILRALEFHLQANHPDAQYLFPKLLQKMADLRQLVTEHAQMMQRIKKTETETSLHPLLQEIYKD
How it was run: as §1

[1] = system: ApoE2/E2 dyslipidemic mouse; assay: Plasma lipids in the ApoE2/E2 dyslipidemic mouse; type: in vivo; settings: 7 days
Procedure: The hypolipemic properties of the compounds according to the invention were evaluated in vivo by determination of plasma lipids and by analysis of gene expression of targets genes of PPARs in the liver after oral treatment of a dyslipidemic mouse with the compounds according to the invention.
The murine model used is the mouse of type ApoE2/E2, a mouse transgenic for the E2 isoform of human apolipoprotein E (Sullivan P M et al., 1998). In humans, this apolipoprotein, a constituent of low and very low density lipoproteins (LDL-VLDL), occurs in three isoforms E2, E3 and E4. […] Because of this, clearance of VLDLs is almost zero. This leads to accumulation of […] and mixed, so-called type III hyperlipidemia (raised cholesterol and triglycerides).
PPARα regulates the expression of genes involved in lipid transport (apolipoproteins such as Apo AI, Apo AII and Apo CIII, membrane transporters such as FAT) or the catabolism of lipids (ACO, CPT-I or CPT-II, enzymes of β-oxidation of fatty acids). Treatment with PPARα activators is therefore reflected, both in humans and in rodents, in a decrease in levels of circulating triglycerides. Measurement of plasma lipids after treatment with the compounds according to the invention is therefore an indicator of the PPARα agonist character and therefore of the hypolipemic action of the compounds according to the invention.
Apo E2/E2 transgenic mice were kept in a cycle of light and darkness of 12 hours/12 hours at a constant temperature of 20±3° C. After acclimation for one week, the mice were weighed and put into groups of 6 animals selected in such a way that the distribution of their bodyweight and of their plasma lipid values determined first before the experiment are uniform. The compounds tested were suspended in carboxymethylcellulose (Sigma C4888) and administered at the chosen dose by stomach tube, at a rate of once a day for 7 days at the chosen dose. The animals had free access to water and food. At the end of the experiment, the animals were anesthetized after fasting for 4 hours, a blood sample was taken on anticoagulant (EDTA), then the mice were weighed and euthanased. The plasma was separated by centrifugation at 3000 rev/min for 20 minutes, and the samples were stored at +4° C. for the biochemical assays. Samples of liver were taken and frozen immediately in liquid nitrogen and then stored at −80° C. for subsequent analyses.
The plasma concentrations of lipids (total cholesterol, HDL-cholesterol, and free fatty acids) were measured by enzyme assays (bioMérieux-Lyons-France) according to the supplier's recommendations.

COc1nc(-c2ccccc2)ccc1COc1ccc(OCC(=O)O)cc1 [Cpd 2, 2-(4-((2-methoxy-6-phenylpyridin-3-yl)methoxy)phenoxy)ethanoic acid]
EC50 (hPPARγ): 12.4 µM | Emax (hPPARγ): 39.1% | EC50 (hPPARδ): 2 µM | Emax (hPPARδ): 109% | plasma level of HDL-cholesterol ([1]; 10 and 100 mpk oral): dose-dependent increase | plasma total cholesterol ([1]; 10 and 100 mpk oral): decreased

COc1nc(-c2ccccc2)ccc1CNc1ccc(CCC(=O)O)cc1 [Cpd 19, 3-(4-(((2-methoxy-6-phenylpyridin-3-yl)methyl)amino)phenyl)propanoic acid]
EC50 (hPPARγ): 1.29 µM | Emax (hPPARγ): 87% | EC50 (hPPARδ): 3.13 µM | Emax (hPPARδ): 95.1% | plasma level of free fatty acids ([1]; 100 mpk oral): decrease | plasma total cholesterol ([1]; 100 mpk oral): decreased

COc1nc(-c2ccc(C(F)(F)F)cc2)ccc1COc1ccc(OCC(=O)O)cc1 [Cpd 24, 2-(4-((2-methoxy-6-(4-(trifluoromethyl)phenyl)pyridin-3-yl)methoxy)-phenoxy)ethanoic acid]
EC50 (hPPARγ): 4.49 µM | Emax (hPPARγ): 65.7% | EC50 (hPPARδ): 0.784 µM | Emax (hPPARδ): 94.1%

COc1nc(-c2ccccc2)ccc1CNc1ccc(OCC(=O)O)cc1 [Cpd 4, 2-(4-(((2-methoxy-6-phenylpyridin-3yl)methyl)amino)phenoxy)ethanoic acid]
EC50 (hPPARγ): 17.7 µM | Emax (hPPARγ): 70.5% | EC50 (hPPARδ): 8.67 µM | Emax (hPPARδ): 115% | plasma level of HDL-cholesterol ([1]; 10 and 100 mpk oral): dose-dependent increase | plasma total cholesterol ([1]; 10 and 100 mpk oral): decreased
